From US7381744B1, “Method of treating osteoporosis comprising vacuolar-type (H+)-ATPase-inhibiting compounds” (The United States of America as represented by the …, priority 1999, dated 2008)

Assays:
UO-31 = assay: NCI 60 cell-line screen; format: cell-based; settings: Homo sapiens, Kidney, averaged, quadruplicate testing, read-out: negative log10 GI50 (converted)
Text: (§1) It is the concentration where 100×(T−To)/To=−50=PG. […] Res., 34, 91-109 (1995).

CAKI-1 = assay: NCI 60 cell-line screen; format: cell-based; settings: Homo sapiens, Kidney, averaged, quadruplicate testing, read-out: negative log10 GI50 (converted)
Text: as §1

SF-295 = assay: NCI 60 cell-line screen; format: cell-based; settings: Homo sapiens, Brain, averaged, quadruplicate testing, read-out: negative log10 GI50 (converted)
Text: as §1

MOLT-4 = assay: NCI 60 cell-line screen; format: cell-based; settings: Homo sapiens, Leukemia, averaged, quadruplicate testing, read-out: negative log10 GI50 (converted)
Text: as §1

LOX-IMVI = assay: NCI 60 cell-line screen; format: cell-based; settings: Homo sapiens, Melanoma, averaged, quadruplicate testing, read-out: negative log10 GI50 (converted)
Text: as §1

786-0 = assay: NCI 60 cell-line screen; format: cell-based; settings: Homo sapiens, Kidney, averaged, quadruplicate testing, read-out: negative log10 GI50 (converted)
Text: as §1

MCF-7-ADR-RES = assay: NCI 60 cell-line screen; format: cell-based; settings: Homo sapiens, Breast, averaged, quadruplicate testing, read-out: negative log10 GI50 (converted)
Text: as §1

OVCAR-3 = assay: NCI 60 cell-line screen; format: cell-based; settings: Homo sapiens, Ovary, averaged, quadruplicate testing, read-out: negative log10 GI50 (converted)
Text: as §1

HT29 = assay: NCI 60 cell-line screen; format: cell-based; settings: Homo sapiens, HT-29, Colon, averaged, quadruplicate testing, read-out: negative log10 GI50 (converted)
Text: as §1

HOP-92 = assay: NCI 60 cell-line screen; format: cell-based; settings: Homo sapiens, Lung, averaged, quadruplicate testing, read-out: negative log10 GI50 (converted)
Text: as §1

SF-539 = assay: NCI 60 cell-line screen; format: cell-based; settings: Homo sapiens, Brain, averaged, quadruplicate testing, read-out: negative log10 GI50 (converted)
Text: as §1

UACC-257 = assay: NCI 60 cell-line screen; format: cell-based; settings: Homo sapiens, Melanoma, averaged, quadruplicate testing, read-out: negative log10 GI50 (converted)
Text: as §1

SNB-75 = assay: NCI 60 cell-line screen; format: cell-based; settings: Homo sapiens, Brain, averaged, quadruplicate testing, read-out: negative log10 GI50 (converted)
Text: as §1

HCT-116 = assay: NCI 60 cell-line screen; format: cell-based; settings: Homo sapiens, Colon, averaged, quadruplicate testing, read-out: negative log10 GI50 (converted)
Text: as §1

A549/ATCC = assay: NCI 60 cell-line screen; format: cell-based; settings: Homo sapiens, Lung, averaged, quadruplicate testing, read-out: negative log10 GI50 (converted)
Text: as §1

KM12 = assay: NCI 60 cell-line screen; format: cell-based; settings: Homo sapiens, Colon, averaged, quadruplicate testing, read-out: negative log10 GI50 (converted)
Text: as §1

SK-MEL-28 = assay: NCI 60 cell-line screen; format: cell-based; settings: Homo sapiens, Melanoma, averaged, quadruplicate testing, read-out: negative log10 GI50 (converted)
Text: as §1

M14 = assay: NCI 60 cell-line screen; format: cell-based; settings: Homo sapiens, Melanoma, averaged, quadruplicate testing, read-out: negative log10 GI50 (converted)
Text: as §1

A498 = assay: NCI 60 cell-line screen; format: cell-based; settings: Homo sapiens, Kidney, averaged, quadruplicate testing, read-out: negative log10 GI50 (converted)
Text: as §1

DU-145 = assay: NCI 60 cell-line screen; format: cell-based; settings: Homo sapiens, Prostate, averaged, quadruplicate testing, read-out: negative log10 GI50 (converted)
Text: as §1

TK-10 = assay: NCI 60 cell-line screen; format: cell-based; settings: Homo sapiens, Kidney, averaged, quadruplicate testing, read-out: negative log10 GI50 (converted)
Text: as §1

HL-60-TB = assay: NCI 60 cell-line screen; format: cell-based; settings: Homo sapiens, HL-60, read-out: negative log10 GI50 (converted)
Text: as §1

SR = assay: NCI 60 cell-line screen; format: cell-based; settings: Homo sapiens, Leukemia, averaged, quadruplicate testing, read-out: negative log10 GI50 (converted)
Text: as §1

HCC-2998 = assay: NCI 60 cell-line screen; format: cell-based; settings: Homo sapiens, Colon, averaged, quadruplicate testing, read-out: negative log10 GI50 (converted)
Text: as §1

K-562 = assay: NCI 60 cell-line screen; format: cell-based; settings: Homo sapiens, K562, Leukemia, averaged, quadruplicate testing, read-out: negative log10 GI50 (converted)
Text: as §1

SN-12C = assay: NCI 60 cell-line screen; format: cell-based; settings: Homo sapiens, SN12C, Kidney, averaged, quadruplicate testing, read-out: negative log10 GI50 (converted)
Text: as §1

EKVX = assay: NCI 60 cell-line screen; format: cell-based; settings: Homo sapiens, Lung, averaged, quadruplicate testing, read-out: negative log10 GI50 (converted)
Text: as §1

U251 = assay: NCI 60 cell-line screen; format: cell-based; settings: Homo sapiens, U-251, Brain, averaged, quadruplicate testing, read-out: negative log10 GI50 (converted)
Text: as §1

[1] = tested on: vacuolar-type (H+)-ATPase derived from human kidney cells (hK); assay: vacuolar-type (H+)-ATPase inhibition assay, membrane vesicles (hK); format: biochemical; settings: bafilomycin-sensitive activity; oligomycin 5 μg/ml and vanadate 1 mM present; 37°, 30 minutes
Experimental: (§2) Inhibition of bafilomycin-sensitive vacuolar-type (H+)-ATPase activity was measured in partially purified membrane vesicle preparations from human osteoclastoma cells (hOc), human renal cortical cells (hK), and macrophage cells (J774). The vesicles were prepared by appropriate adaptations of methods described in Gagliardi et al., J. Med. Chem., 41, 1568-1573 (1998); and Gagliardi et al., J. Med. Chem., 41, 1883-1893 (1998).
(§3) Vacuolar-type (H+)-ATPase assays were performed in the presence of oligomycin (5 μg/ml) and vanadate (1 mM) as inhibitors of F- and P-ATPases, respectively. A […] method was used to quantitate the residual bafilomycin-sensitive vacuolar-type (H+)-ATPase activity (see Chan et al., Anal. Biochem., 157, 375-380 (1986)). The assay measures the release of inorganic phosphate from ATP at 37° during 30 minutes of incubation. The reaction is initiated by the addition of MgSO4 ([…]).

[2] = stability in solvents observed during isolation and NMR; format: physicochemical; settings: deuterated chloroform
Text: Therefore, all subsequent attempts at isolation avoided the use of chloroform or exposure of samples to CDCl3, and no further problems with decomposition or loss of bioactivity were encountered. Moreover, there was no indication of any instability of the pure isolated compounds in any of the other common organic solvents employed, nor in aqueous or biological media.
Signals obscured by or unresolved in the first solvent were readily discernible in the second. Consequently, ^1H-^1H COSY, HMQC, and HMBC NMR data were gathered in both solvents. […] From a combination of the HMQC (Table 2) and the COSY spectral data, the partial structures illustrated in FIGS. 5A-5C were generated.

[3] = tested on: fungal vacuolar-type (H+)-ATPase (from Neurospora crassa); assay: fungal vacuolar-type (H+)-ATPase inhibition, side-by-side test; format: biochemical
Text: (§4) The inhibitory data were obtained using the same procedures and biological preparations described in Bowman et al., Proc. Natl. Acad. Sci. USA, 85, 7972-7976 (November 1988).

[4] = tested on: mammalian vacuolar-type (H+)-ATPase (from chromaffin granule membranes); assay: mammalian vacuolar-type (H+)-ATPase inhibition, side-by-side test; format: biochemical; settings: chromaffin granule membranes; side-by-side test
Text: as §4

[5] = tested on: vacuolar-type (H+)-ATPase derived from macrophage cells (J774); assay: vacuolar-type (H+)-ATPase inhibition assay, membrane vesicles (J774); format: biochemical; settings: bafilomycin-sensitive activity; oligomycin 5 μg/ml and vanadate 1 mM present; 37°, 30 minutes
Experimental: as §2, §3

With `CC/C=C\C=C/C(=O)N/C=C/CC1CC(O)C(C)C/C=C/Cc2cccc(O)c2C(=O)O1` (stereo not drawn) [salicylihalamide A] the GI50 (UO-31) was 4.9 nM, the GI50 (CAKI-1) was 1.1 nM and the GI50 (SF-295) was 1.1 nM. It also gave a GI50 (MOLT-4) of 11 nM, a GI50 (LOX-IMVI) of 0.776 nM and a GI50 (786-0) of 12 nM. For the same molecule, the GI50 (MCF-7-ADR-RES) was 8.51 nM, the GI50 (OVCAR-3) was 93.3 nM and the GI50 (HT29) was 2.88 nM. The GI50 (HOP-92) was 17 nM, the GI50 (SF-539) was 12.9 nM and the GI50 (UACC-257) was 3.39 nM. The GI50 (SNB-75) was 617 nM, the GI50 (HCT-116) was 1.82 nM and the GI50 (A549/ATCC) was 2.88 nM. For the same molecule, the GI50 (KM12) was 5.01 nM, the GI50 (SK-MEL-28) was 100 nM and the GI50 (M14) was 1.2 nM. It also gave a GI50 (A498) of 282 nM, a GI50 (DU-145) of 5.5 nM and a GI50 (TK-10) of 1820 nM. The GI50 (HL-60-TB) was 0.912 nM, the GI50 (SR) was 3.63 nM and the GI50 (HCC-2998) was 182 nM. It also gave a GI50 (K-562) of 3.89 nM, a GI50 (SN-12C) of 17 nM and a GI50 (EKVX) of 30.2 nM. The GI50 (U251) was 26.9 nM, the IC50 [1] was 0.3 nM and the “stability in CDCl3” value [2] was “sensitivity of salicylihalamide A to CDCl3”. The “inhibitory activity against fungal vacuolar-type (H+)-ATPase” value [3] was “little or no inhibitory activity”, the “inhibitory activity against mammalian vacuolar-type (H+)-ATPase” value [4] was “potent inhibitor” and the IC50 [5] was 2.8 nM.
